Consider 35 compounds from US11613531B2, “Inhibitors of RHO associated coiled-coil containing protein kinase” (Kadmon Corporation, LLC, priority 2017, dated 2023).

As a reminder, the IC50 is the concentration needed to halve the response being measured.

The test system of one test is ppMlc (T18/S19) levels in A7R5 cells. Put plainly: A7R5 in-cell ELISA (pMLC). Type of test: cell-based, Rat. Conditions: A7R5 cells, 1 μM compound. Here is the method:
Determination of Compounds ROCK Inhibitory Activity in A7R5Cells.
Rat aortic smooth muscle cell line, A7R5, cells were seeded with density of 5,000 cells/well in a 96-well plates for 24 hours and subsequently treated for 90 min with testing compounds. Cells were then fixed and processed according to the In-Cell ELISA Colorimetric Detection Kit manual (Thermo Scientific).
An A7R5 in-cell Elisa assay was performed. A7R5 cells were treated with 9 points 2 fold serial dilution of compounds and ppMlc (T18/S19) levels were determined to calculate cellular IC50 values of the compounds. Compounds of the invention gave in cell IC50s under 100 nM.
In vitro activities for the compounds were measured with Z′-lyte kinase kit (ThermoFisher Scientific). The percent inhibition rate was calculated by normalizing the kinase activity value obtained with 1 μM compound treatment against DMSO control value and then applied to the formula, [1-(compound/DMSO)]×100%. IC50s were calculated using the nonlinear regression curve fit function of the GraphPad Prism software with kinase activities data measured with 9 points 2-fold serial dilution of compounds treatment. In cell pMLC IC50s were calculated with data obtained from A7R5 cell experiments. A7R5 cells were treated with 9 points 2-fold serial dilution of compounds and ppMlc (T18/S19) levels were determined to calculate cellular IC50 values of the compounds using the nonlinear regression curve fit function of the GraphPad Prism software. NIH3T3 cells stably expressing ACTA2-promoter-driven-luciferase were applied to measure ROCK compounds functional IC50s in cells. Cells were plated in 96 well plates to confluence and treated with 9 points serial dilution of compounds in combination with TGFβ1 for 24 hr. Luciferase activities were measured and compound's IC50s were calculated using the nonlinear regression curve fit function of the GraphPad Prism software.
`c1cc(Nc2ccc3[nH]ncc3c2)nc(N2CCCC(C3CCCNC3)C2)n1` (centres unmarked) [Example 86, N-(2-([3,3′-bipiperidin]-1-yl)pyrimidin-4-yl)-1H-indazol-5-amine]: the “pMLC % inh A7R5 @ [conc]” value was 377.49%.

Still in this test, the particulars now being: Rattus norvegicus, A7R5, A7R5 cells, 1 μM compound; read-out: pMLC % inh A7R5 @ [conc].
On to `O=C1CN(c2nccc(Nc3ccc4[nH]ncc4c3)n2)CCN1` [Example 17, 4-(4-((1H-indazol-5-yl)amino)pyrimidin-2-yl)piperazin-2-one], for which the inhibition at 1 µM came to 11.2%.

With `c1cc(Nc2ccc3[nH]ncc3c2)nc(N2CCC3(CC2)CNC3)n1` [Example 70, N-(2-(2,7-diazaspiro[3.5]nonan-7-yl)pyrimidin-4-yl)-1H-indazol-5-amine], the inhibition at 1 µM is -9.7%.

In the case of `c1cc(Nc2ccc3[nH]ncc3c2)nc(N2CCC3(CNC3)C2)n1` [Example 71, N-(2-(2,6-diazaspiro[3.4]octan-6-yl)pyrimidin-4-yl)-1H-indazol-5-amine], the inhibition at 1 µM was -12.8%.

Consider `c1cc(Nc2ccc3[nH]ncc3c2)nc(N2CCC3(CC2)CNCCO3)n1` [Example 72, N-(2-(1-oxa-4,9-diazaspiro[5.5]undecan-9-yl)pyrimidin-4-yl)-1H-indazol-5-amine], for which the inhibition at 1 µM was -6.7%.

For the compound `c1cc(Nc2ccc3[nH]ncc3c2)nc(N2CCC3(CCCNC3)C2)n1` (centres unmarked) [Example 73, N-(2-(2,7-diazaspiro[4.5]decan-2-yl)pyrimidin-4-yl)-1H-indazol-5-amine], the inhibition at 1 µM is -4.8%.

Turning to `c1cc(Nc2ccc3[nH]ncc3c2)nc(N2CCCC3(CCNC3)C2)n1` (centres unmarked) [Example 74, N-(2-(2,7-diazaspiro[4.5]decan-7-yl)pyrimidin-4-yl)-1H-indazol-5-amine], the inhibition at 1 µM stood at 2.7%.

As to `c1cc(Nc2ccc3[nH]ncc3c2)nc(N2CC3(CCNC3)C2)n1` [Example 75, N-(2-(2,6-diazaspiro[3.4]octan-2-yl)pyrimidin-4-yl)-1H-indazol-5-amine], the inhibition at 1 µM was -8.7%.

Turning to `c1cc(Nc2ccc3[nH]ncc3c2)nc(N2CC3(CCNCC3)C2)n1` [Example 76, N-(2-(2,7-diazaspiro[3.5]nonan-2-yl)pyrimidin-4-yl)-1H-indazol-5-amine], the inhibition at 1 µM is 0%.

As for `c1cc(Nc2ccc3[nH]ncc3c2)nc(N2CC3(CNC3)C2)n1` [Example 77, N-(2-(2,6-diazaspiro[3.3]heptan-2-yl)pyrimidin-4-yl)-1H-indazol-5-amine], the inhibition at 1 µM is -2.9%.

`c1cc(Nc2ccc3[nH]ncc3c2)nc(N2CC3CNCC(C3)C2)n1` [Example 79, N-(2-(3,7-diazabicyclo[3.3.1]nonan-3-yl)pyrimidin-4-yl)-1H-indazol-5-amine]: the inhibition at 1 µM came out at 9.8%.

On to `c1cc(Nc2ccc3[nH]ncc3c2)nc(N2CCC3NCCC3C2)n1` (centres unmarked) [Example 80, N-(2-(octahydro-5H-pyrrolo[3,2-c]pyridin-5-yl)pyrimidin-4-yl)-1H-indazol-5-amine], for which the inhibition at 1 µM was 11.9%.

For the compound `c1cc(Nc2ccc3[nH]ncc3c2)nc(N2C[C@@H]3CN[C@@H]3C2)n1` [Example 81, N-(2-((1S,5S)-3,6-diazabicyclo[3.2.0]heptan-3-yl)pyrimidin-4-yl)-1H-indazol-5-amine], the inhibition at 1 µM is 13.2%.

Turning to `c1cc(Nc2ccc3[nH]ncc3c2)nc(N2CCC(C3CNC3)C2)n1` (centres unmarked) [Example 83, N-(2-(3-(azetidin-3-yl)pyrrolidin-1-yl)pyrimidin-4-yl)-1H-indazol-5-amine], the inhibition at 1 µM was 2.1%.

In the case of `Cc1cc(Nc2ccc3[nH]ncc3c2)nc(N2CCC3(CC2)CNC3)n1` [Example 121, N-(6-methyl-2-(2,7-diazaspiro[3.5]nonan-7-yl)pyrimidin-4-yl)-1H-indazol-5-amine], the inhibition at 1 µM is -7.3%.

Consider `Cc1cc(Nc2ccc3[nH]ncc3c2)nc(N2CCC3(CNC3)C2)n1` [Example 122, N-(6-methyl-2-(2,6-diazaspiro[3.4]octan-6-yl)pyrimidin-4-yl)-1H-indazol-5-amine], for which the inhibition at 1 µM was -6.8%.

Turning to `Cc1cc(Nc2ccc3[nH]ncc3c2)nc(N2CCC3(CC2)CNCCO3)n1` [Example 123, N-(6-methyl-2-(1-oxa-4,9-diazaspiro[5.5]undecan-9-yl)pyrimidin-4-yl)-1H-indazol-5-amine], the inhibition at 1 µM was -0.8%.

Staying with this test, now noted: Rattus norvegicus, A7R5, A7R5 cells, 10 μM compound; read-out: pMLC % inh A7R5 @ [conc].
In the case of `c1ccc(CC2CN(c3nc4c(c(Nc5ccc6[nH]ncc6c5)n3)COC4)CCCN2)cc1` (centres unmarked) [Example 2, 2-(3-benzyl-1,4-diazepan-1-yl)-N-(1H-indazol-5-yl)-5,7-dihydrofuro[3,4-d]pyrimidin-4-amine], the inhibition at 10 µM stood at 72.4%.

As to `Cc1cnc(N2CCCNCC2)nc1Nc1ccc2[nH]ncc2c1` [Example 3, N-(2-(1,4-diazepan-1-yl)-5-methylpyrimidin-4-yl)-1H-indazol-5-amine], the inhibition at 10 µM turned out to be 54.4%.

`Cc1nc(N2CCCNC(C(C)C)C2)nc(Nc2ccc3[nH]ncc3c2)c1C` (centres unmarked) [Example 16, N-(2-(3-isopropyl-1,4-diazepan-1-yl)-5,6-dimethylpyrimidin-4-yl)-1H-indazol-5-amine]: the inhibition at 10 µM was determined as 32.1%.

In the case of `Cc1nc(N2CCCNC(c3ccccc3)C2)nc(Nc2ccc3[nH]ncc3c2)c1C` (centres unmarked) [Example 20, N-(5,6-dimethyl-2-(3-phenyl-1,4-diazepan-1-yl)pyrimidin-4-yl)-1H-indazol-5-amine], the inhibition at 10 µM turned out to be 37.6%.

For the compound `Cc1nc(N2CCNC(c3ccccc3)CC2)nc(Nc2ccc3[nH]ncc3c2)c1C` (centres unmarked) [Example 21, N-(5,6-dimethyl-2-(5-phenyl-1,4-diazepan-1-yl)pyrimidin-4-yl)-1H-indazol-5-amine], the inhibition at 10 µM was 21.1%.

For `Cc1nc(N2CC(C)NC(C)C2)nc(Nc2ccc3[nH]ncc3c2)c1C` (centres unmarked) [Example 24, N-(2-(3,5-dimethylpiperazin-1-yl)-5,6-dimethylpyrimidin-4-yl)-1H-indazol-5-amine], the inhibition at 10 µM is 22.6%.

Turning to `c1cncc(-c2ccc(Nc3ccnc(N4CCNCC4)n3)cc2)c1` [Example 40, 2-(piperazin-1-yl)-N-(4-(pyridin-3-yl)phenyl)pyrimidin-4-amine], the inhibition at 10 µM was 13.4%.

Regarding `c1cc(Nc2ccc(-c3nnn[nH]3)cc2)nc(N2CCNCC2)n1` [Example 42, N-(4-(1H-tetrazol-5-yl)phenyl)-2-(piperazin-1-yl)pyrimidin-4-amine], the inhibition at 10 µM was 9.1%.

Take `COc1cnc(N2CCCNC(c3ccccc3)C2)nc1Nc1ccc2[nH]ncc2c1` (centres unmarked) [Example 48, N-(5-methoxy-2-(3-phenyl-1,4-diazepan-1-yl)pyrimidin-4-yl)-1H-indazol-5-amine]: the inhibition at 10 µM was 51.1%.

In the case of `COc1cnc(N2CCNC(c3ccccc3)CC2)nc1Nc1ccc2[nH]ncc2c1` (centres unmarked) [Example 50, N-(5-methoxy-2-(5-phenyl-1,4-diazepan-1-yl)pyrimidin-4-yl)-1H-indazol-5-amine], the inhibition at 10 µM was 35.5%.

In the case of `COc1cnc(N2CC(C)NC(C)C2)nc1Nc1ccc2[nH]ncc2c1` (centres unmarked) [Example 52, N-(2-(3,5-dimethylpiperazin-1-yl)-5-methoxypyrimidin-4-yl)-1H-indazol-5-amine], the inhibition at 10 µM is 29.5%.

As for `Cc1cnc(N2CCCNC(C(C)C)C2)nc1Nc1ccc2[nH]ncc2c1` (centres unmarked) [Example 92, N-(2-(3-isopropyl-1,4-diazepan-1-yl)-5-methylpyrimidin-4-yl)-1H-indazol-5-amine], the inhibition at 10 µM was determined as 19.6%.

Turning to `Cc1cnc(N2CCNC(C(C)C)CC2)nc1Nc1ccc2[nH]ncc2c1` (centres unmarked) [Example 93, N-(2-(5-isopropyl-1,4-diazepan-1-yl)-5-methylpyrimidin-4-yl)-1H-indazol-5-amine], the inhibition at 10 µM worked out at 21.1%.

Regarding `Cc1cnc(N2CCNC(c3ccccc3)CC2)nc1Nc1ccc2[nH]ncc2c1` (centres unmarked) [Example 94, N-(5-methyl-2-(5-phenyl-1,4-diazepan-1-yl)pyrimidin-4-yl)-1H-indazol-5-amine], the inhibition at 10 µM was 19.2%.

Take `CCC1CN(c2ncc(C)c(Nc3ccc4[nH]ncc4c3)n2)CCN1` (centres unmarked) [Example 99, N-(2-(3-ethylpiperazin-1-yl)-5-methylpyrimidin-4-yl)-1H-indazol-5-amine]: the inhibition at 10 µM is 29.6%.

As to `Cc1cnc(N2CCCNC(c3ccccc3)C2)nc1Nc1ccc2[nH]ncc2c1` (centres unmarked) [Example 103, N-(5-methyl-2-(3-phenyl-1,4-diazepan-1-yl)pyrimidin-4-yl)-1H-indazol-5-amine], the inhibition at 10 µM turned out to be 38.3%.

Take `Cc1cc(Nc2ccc3[nH]ncc3c2)nc(N2CCNC(c3ccccc3)CC2)n1` (centres unmarked) [Example 108, N-(6-methyl-2-(5-phenyl-1,4-diazepan-1-yl)pyrimidin-4-yl)-1H-indazol-5-amine]: the inhibition at 10 µM was 47.3%.

As to `Cc1cc(Nc2ccc3[nH]ncc3c2)nc(N2CCCNC(c3ccccc3)C2)n1` (centres unmarked) [Example 112, N-(6-methyl-2-(3-phenyl-1,4-diazepan-1-yl)pyrimidin-4-yl)-1H-indazol-5-amine], the inhibition at 10 µM stood at 56.9%.

The same test, now with this note: Rattus norvegicus, A7R5, A7R5 cells, ppMlc (T18/S19).
As for `c1ccc(CC2CN(c3nc4c(c(Nc5ccc6[nH]ncc6c5)n3)COC4)CCCN2)cc1` (centres unmarked) [Example 2, 2-(3-benzyl-1,4-diazepan-1-yl)-N-(1H-indazol-5-yl)-5,7-dihydrofuro[3,4-d]pyrimidin-4-amine], the IC50 was 2500 nM.

In the case of `COc1cnc(N2CCCNC(c3ccccc3)C2)nc1Nc1ccc2[nH]ncc2c1` (centres unmarked) [Example 48, N-(5-methoxy-2-(3-phenyl-1,4-diazepan-1-yl)pyrimidin-4-yl)-1H-indazol-5-amine], the IC50 was 2580 nM.

Take `Cc1cc(Nc2ccc3[nH]ncc3c2)nc(N2CCCNC(c3ccccc3)C2)n1` (centres unmarked) [Example 112, N-(6-methyl-2-(3-phenyl-1,4-diazepan-1-yl)pyrimidin-4-yl)-1H-indazol-5-amine]: the IC50 was found to be 1290 nM.
